Measured values as given in US20250154127A1, “BICYCLIC HETEROARYL COMPOUNDS AND USES THEREOF” (ETERN BIOPHARMA (SHANGHAI) CO., LTD., priority 2022, published 2025).

Experiments:
MSTO-211H cells = test: Proliferation Assay (CellTiter-Glo Luminescent Cell Viability Assay); assay type: cell-based; conditions: Homo sapiens, 96 hours treatment
Experimental: Example 5: Proliferation Assay
The effect of compound on YAP driven cancer cells proliferation was assessed in MSTO-211H (ATCC, CRL-2081TM) or NCI-H2052 (ATCC, CRL-5915TM) cells using CellTiter-Glo Luminescent Cell Viability Assay (Promega, G7570).
Briefly, individual cell lines were seeded in 96-well cell culture plate at the density of 1,500 cells per well and cultured in RPMII1640 (Gibco-A10491-01)+10% FBS (Gibco-10099-141C)+1% Penicillin-Streptomycin (5,000 U/mL, Gibco-15070-063) overnight at 37° C. with 5% CO2 before adding the compounds.
Following incubation, serial dilutions of compounds dissolved in DMSO were added to each well (3-fold dilution with 9 concentration points). The final concentration of DMSO present in this assay is below 0.5% and make duplication for each compound treated well.
Following 96 hours treatment, compound mediated cell growth inhibition was measured using CellTiter-Go Luminescent Cell Viability Assay (Promega, G7570). […] CellTiter-Glo in each assay well, mix and incubate at room temperature for 10 min. Read signal using EnVision® Multilabel Plate Reader (Perkin Elmer).
For data analysis, cell proliferation inhibition was calculated using the following formula:
Inhibition %=(1−(Compound treated well CTG signal/DMSO well CTG signal))*100.
IC50 values were calculated using GraphPad Prism software using a four-parameter fit model.

[1] = molecular target: TEAD1(210-426) binding to YAP(50-100) (Homo sapiens, UniProt P28347); test: TR-FRET Assay for TEAD1(210-426) Binding to YAP(50-100); conditions: His-TEAD 10 nM, YAP-Biotin peptide 50 nM
TEAD1(210-426) binding to YAP(50-100), sequence (P28347 209-426): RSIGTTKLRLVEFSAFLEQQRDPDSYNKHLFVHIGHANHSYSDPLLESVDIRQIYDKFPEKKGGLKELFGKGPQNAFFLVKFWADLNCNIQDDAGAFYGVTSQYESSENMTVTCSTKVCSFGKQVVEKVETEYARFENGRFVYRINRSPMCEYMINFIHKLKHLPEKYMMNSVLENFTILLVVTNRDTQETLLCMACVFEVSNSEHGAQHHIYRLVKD
Experimental: Compounds were performed 3 fold serial dilution, 12 data points, added to 384 well white plate. The final DMSO concentration is 1%, duplicate for each concentration. Then His-TEAD protein was added to a final concentration of 10 nM, and allowed to preincubate for 30 minutes at room temperature. Assay buffer was added as background control.
YAP-Biotin peptide was added to a final concentration of 50 nM, mixed well, incubate 10 minutes at room temperature. The YAP(50-100) peptide sequence used here is named SEQ ID NO: 2
The Europium-labeled anti-6×His antibody and APC labeled streptavidin were diluted according to the instructions, this detection solution was mixed 1:1 with reaction solution, incubated 1 hour at room temperature.
TR-FRET measurements were made on an Envision (Perkin Elmer), using an excitation wavelength of 320 nm and emissions read at 620 nm and 665 nm. The ratio of the 665 nm to the 620 nm multiply 10000 provides a normalized TR-FRET signal that represents the extent of binding.
Half inhibition concentration IC50 value was calculated by XLfit software.

Row | IC50 [1] | SMILES | IC50 (MSTO-211H cells)
1 | 0.1 to 1 µM | CO[C@H]1C[C@@H](Nc2ccnc(Cn3ccc(-c4nn(-c5ccc(C(F)(F)F)cc5)c5ccccc45)cc3=O)n2)C1 [Compound 90, 1-((4-(((1s,3s)-3-methoxycyclobutyl)amino)pyrimidin-2-yl)methyl)-4-(1-(4-(trifluoromethyl)phenyl)-1H-indazol-3-yl)pyridin-2(1H)-one] | ≤ 1 µM
2 | 0.1 to 1 µM | C[C@H](c1ccccn1)n1ccc(-c2nn(-c3ccc(C(F)(F)F)cc3)c3cccnc23)cc1=O [Compound 3, (R)-1-(1-(pyridin-2-yl)ethyl)-4-(1-(4-(trifluoromethyl)phenyl)-1H-pyrazolo[4,3-b]pyridin-3-yl)pyridin-2(1H)-one] | 1 to 10 µM
3 | ≤ 0.1 µM | Cn1ccc(Cn2ccc(-c3cn(-c4ccc(C(F)(F)F)cc4)c4ncccc34)cc2=O)n1 [Compound 64, 1-((1-methyl-1H-pyrazol-3-yl)methyl)-4-(1-(4-(trifluoromethyl)phenyl)-1H-pyrrolo[2,3-b]pyridin-3-yl)pyridin-2(1H)-one] | ≤ 1 µM
4 | ≤ 0.1 µM | CNc1cc(Cn2ccc(-c3nn(-c4ccc(C(F)(F)F)cc4)c4ncccc34)cc2=O)ncn1 [Compound 98, 1-((6-(methylamino)pyrimidin-4-yl)methyl)-4-(1-(4-(trifluoromethyl)phenyl)-1H-pyrazolo[3,4-b]pyridin-3-yl)pyridin-2(1H)-one] | ≤ 1 µM
5 | ≤ 0.1 µM | C[C@@H](c1ccncc1)n1ccc(-c2nn(-c3ccc(C(F)(F)F)cc3)c3ccccc23)cc1=O [Compound 14, (S)-1-(1-(pyridin-4-yl)ethyl)-4-(1-(4-(trifluoromethyl)phenyl)-1H-indazol-3-yl)pyridin-2(1H)-one] | ≤ 1 µM
6 | ≤ 0.1 µM | C[C@@H](c1ccccn1)n1ccc(-c2nn(-c3ccc(C(F)(F)F)cc3)c3ccccc23)cc1=O [Compound 11, (S)-1-(1-(pyridin-2-yl)ethyl)-4-(1-(4-(trifluoromethyl)phenyl)-1H-indazol-3-yl)pyridin-2(1H)-one] | ≤ 1 µM
7 | ≤ 0.1 µM | CNc1nccc(Cn2ccc(-c3nn(-c4ccc(C(F)(F)F)cc4)c4ccc(F)cc34)cc2=O)n1 [Compound 140, 4-(5-fluoro-1-(4-(trifluoromethyl)phenyl)-1H-indazol-3-yl)-1-((2-(methylamino)pyrimidin-4-yl)methyl)pyridin-2(1H)-one] | ≤ 1 µM
8 | ≤ 0.1 µM | O=c1cc(-n2nc(-c3ccc(C(F)(F)F)cc3)c3ncccc32)ccn1Cc1ccnc(NCCO)n1 [Compound 46, 1-((2-((2-hydroxyethyl)amino)pyrimidin-4-yl)methyl)-4-(3-(4-(trifluoromethyl)phenyl)-1H-pyrazolo[4,3-b]pyridin-1-yl)pyridin-2(1H)-one] | ≤ 1 µM
9 | ≤ 0.1 µM | Nc1ccnc(Cn2ccc(-c3nn(-c4ccc(C(F)(F)F)cc4)c4ncccc34)cc2=O)n1 [Compound 110, 1-((4-aminopyrimidin-2-yl)methyl)-4-(1-(4-(trifluoromethyl)phenyl)-1H-pyrazolo[3,4-b]pyridin-3-yl)pyridin-2(1H)-one] | ≤ 1 µM
10 | ≤ 0.1 µM | Nc1cc(Cn2ccc(-c3nn(-c4ccc(C(F)(F)F)cc4)c4ncccc34)cc2=O)ccn1 [Compound 112, 1-((2-aminopyridin-4-yl)methyl)-4-(1-(4-(trifluoromethyl)phenyl)-1H-pyrazolo[3,4-b]pyridin-3-yl)pyridin-2(1H)-one] | ≤ 1 µM
11 | ≤ 0.1 µM | C[C@@H](c1ccccn1)n1ccc(-c2nn(-c3ccc(C(F)(F)F)cc3)c3ccc(F)cc23)cc1=O [Compound 33, (S)-4-(5-fluoro-1-(4-(trifluoromethyl)phenyl)-1H-indazol-3-yl)-1-(1-(pyridin-2-yl)ethyl)pyridin-2(1H)-one] | ≤ 1 µM
12 | > 1 µM | C[C@@H](c1ccccn1)n1ccc(-c2nn(-c3ccc(C(F)(F)F)nc3)c3cccnc23)cc1=O [Compound 40, (S)-1-(1-(pyridin-2-yl)ethyl)-4-(1-(6-(trifluoromethyl)pyridin-3-yl)-1H-pyrazolo[4,3-b]pyridin-3-yl)pyridin-2(1H)-one] | ≤ 1 µM
13 | ≤ 0.1 µM | CNc1nccc(Cn2ccc(-c3nn(-c4ccc(C(F)(F)F)cc4)c4cccc(F)c34)cc2=O)n1 [Compound 158, 4-(1-(4-((difluoro-13-methyl)-12-fluoranyl)phenyl)-4-fluoro-1H-indazol-3-yl)-1-((2-(methylamino)pyrimidin-4-yl)methyl)pyridin-2(1H)-one] | ≤ 1 µM
14 | ≤ 0.1 µM | CNc1nccc([C@H](C)n2ccc(-c3nn(-c4ccc(C(F)(F)F)cc4)c4ncccc34)cc2=O)n1 [Compound 131, (S)-1-(1-(2-(methylamino)pyrimidin-4-yl)ethyl)-4-(1-(4-(trifluoromethyl)phenyl)-1H-pyrazolo[3,4-b]pyridin-3-yl)pyridin-2(1H)-one] | ≤ 1 µM
15 | ≤ 0.1 µM | Cn1ccc(Cn2ccc(-c3nn(-c4ccc(C(F)(F)F)cc4)c4ccccc34)cc2=O)n1 [Compound 38, 1-((1-methyl-1H-pyrazol-3-yl)methyl)-4-(1-(4-(trifluoromethyl)phenyl)-1H-indazol-3-yl)pyridin-2(1H)-one] | ≤ 1 µM
16 | ≤ 0.1 µM | O=c1cc(-c2nn(-c3ccc(C(F)(F)F)cc3)c3ccccc23)ccn1Cc1cccc(Cl)n1 [Compound 89, 1-((6-chloropyridin-2-yl)methyl)-4-(1-(4-(trifluoromethyl)phenyl)-1H-indazol-3-yl)pyridin-2(1H)-one] | ≤ 1 µM
17 | ≤ 0.1 µM | Nc1cc(Cn2ccc(-n3nc(-c4ccc(C(F)(F)F)cc4)c4ncccc43)cc2=O)ccn1 [Compound 121, 1-((2-aminopyridin-4-yl)methyl)-4-(3-(4-(trifluoromethyl)phenyl)-1H-pyrazolo[4,3-b]pyridin-1-yl)pyridin-2(1H)-one] | ≤ 1 µM
18 | ≤ 0.1 µM | Nc1cccc(Cn2ccc(-c3nn(-c4ccc(C(F)(F)F)cc4)c4ccccc34)cc2=O)n1 [Compound 60, 1-((6-aminopyridin-2-yl)methyl)-4-(1-(4-(trifluoromethyl)phenyl)-1H-indazol-3-yl)pyridin-2(1H)-one] | ≤ 1 µM
19 | ≤ 0.1 µM | Nc1nccc(Cn2ccc(-c3nn(-c4ccc(C(F)(F)F)cc4)c4ncccc34)cc2=O)n1 [Compound 109, 1-((2-aminopyrimidin-4-yl)methyl)-4-(1-(4-(trifluoromethyl)phenyl)-1H-pyrazolo[3,4-b]pyridin-3-yl)pyridin-2(1H)-one] | ≤ 1 µM
20 | ≤ 0.1 µM | C[C@@H](c1cccnc1)n1ccc(-c2nn(-c3ccc(C(F)(F)F)cc3)c3ccccc23)cc1=O [Compound 13, (S)-1-(1-(pyridin-3-yl)ethyl)-4-(1-(4-(trifluoromethyl)phenyl)-1H-indazol-3-yl)pyridin-2(1H)-one] | ≤ 1 µM
21 | 0.1 to 1 µM | CNc1nccc(Cn2ccc(-c3nn(-c4ccc(C(F)(F)F)cc4)c4c(OC)cccc34)cc2=O)n1 [Compound 142, 4-(7-methoxy-1-(4-(trifluoromethyl)phenyl)-1H-indazol-3-yl)-1-((2-(methylamino)pyrimidin-4-yl)methyl)pyridin-2(1H)-one] | ≤ 1 µM
